Data taken from BindingDB's records for doi:10.1016/j.bmcl.2007.02.049 (Gnf, 2007).

Target: Cathepsin S (Homo sapiens, UniProt P25774)
Assay: Enzyme Inhibition Assay
Conditions: pH 5.5; 37 °C
Experimental: The recombinant human cathepsin enzyme was preincubated with inhibitor for 20 minutes prior to addition of substrate. The substrate hydrolysis was monitored by the increase in fluorescence at an excitation wavelength of 380nm and an emission wavelength of 450 nm on a Gemini EM fluorometer. The reaction progress curve was fitted to the Morrison equation using PlateKi (BioKin) and the apparent inhibition constant was converted to the inhibition constant (Ki) for competitive inhibitors.

Sequence of Cathepsin S (P25774 whole entry): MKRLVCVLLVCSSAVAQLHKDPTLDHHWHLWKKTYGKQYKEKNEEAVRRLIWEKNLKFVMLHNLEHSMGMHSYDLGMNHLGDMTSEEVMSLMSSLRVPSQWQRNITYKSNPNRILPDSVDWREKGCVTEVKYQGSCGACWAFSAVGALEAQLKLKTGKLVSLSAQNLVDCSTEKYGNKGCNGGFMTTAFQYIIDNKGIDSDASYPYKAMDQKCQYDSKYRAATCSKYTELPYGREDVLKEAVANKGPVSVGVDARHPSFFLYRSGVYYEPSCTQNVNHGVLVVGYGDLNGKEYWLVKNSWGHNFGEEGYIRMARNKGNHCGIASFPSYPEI

Ki: 20 nM
SMILES: O=C(N[C@@H](CCc1ccccc1)CNc1ccc(OC(F)(F)F)cc1)[C@H](CCC1CCCC1)CC(=O)N1CCOCC1 [(2R)-2-(2-cyclopentylethyl)-4-(morpholin-4-yl)-4-oxo-N-[(2S)-4-phenyl-1-{[4-(trifluoromethoxy)phenyl]amino}butan-2-yl]butanamide]
